According to ChEMBL document CHEMBL5465560, “Selectivity Literature for EUbOPEN Chemogenomic Library” (2024):
One block for each compound: values may come before it.

How the values were obtained:
[1] = molecular target: cAMP-dependent protein kinase catalytic subunit alpha (Homo sapiens, UniProt P17612); assay: Selectivity interaction (KinomeScan (DiscoverX)) EUB0000666a PRKACA; details: at 10 µM
[2] = molecular target: T1, Discoidin domain-containing receptor 2 (Homo sapiens) (UniProt Q16832); assay: Selectivity interaction (KinomeScan (DiscoverX)) EUB0000607a DDR2; details: at 10 µM
T1 sequence (whole entry): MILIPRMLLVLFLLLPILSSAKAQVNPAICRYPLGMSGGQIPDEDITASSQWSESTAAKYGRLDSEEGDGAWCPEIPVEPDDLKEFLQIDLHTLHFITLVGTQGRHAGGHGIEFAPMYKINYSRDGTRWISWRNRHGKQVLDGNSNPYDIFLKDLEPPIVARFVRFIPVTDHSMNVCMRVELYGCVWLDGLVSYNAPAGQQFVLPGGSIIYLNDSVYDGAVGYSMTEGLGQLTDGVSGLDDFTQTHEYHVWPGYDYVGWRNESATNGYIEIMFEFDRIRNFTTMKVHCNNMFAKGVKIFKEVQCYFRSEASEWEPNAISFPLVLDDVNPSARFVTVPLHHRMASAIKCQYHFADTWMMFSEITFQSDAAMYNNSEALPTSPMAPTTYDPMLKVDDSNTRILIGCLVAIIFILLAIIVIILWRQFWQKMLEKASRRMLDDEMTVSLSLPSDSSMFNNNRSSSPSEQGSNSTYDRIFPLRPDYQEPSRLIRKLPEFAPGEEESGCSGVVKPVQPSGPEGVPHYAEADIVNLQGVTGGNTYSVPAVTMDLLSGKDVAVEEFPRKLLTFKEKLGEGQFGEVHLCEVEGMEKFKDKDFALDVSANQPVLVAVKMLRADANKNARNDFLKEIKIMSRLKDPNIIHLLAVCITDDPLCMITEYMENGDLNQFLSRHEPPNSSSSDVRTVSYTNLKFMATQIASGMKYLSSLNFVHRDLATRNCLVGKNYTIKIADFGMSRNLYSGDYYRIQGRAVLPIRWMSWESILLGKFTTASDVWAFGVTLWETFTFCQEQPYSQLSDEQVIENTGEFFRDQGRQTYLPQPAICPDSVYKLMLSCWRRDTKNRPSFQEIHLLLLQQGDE

[3] = molecular target: Serine/threonine-protein kinase Nek6 (Homo sapiens) (UniProt Q9HC98); details: at 10 µM
[4] = molecular target: Tyrosine-protein kinase JAK1 (Homo sapiens, UniProt P23458); assay: Selectivity interaction (ActivX KiNativ screen (kinase selectivity in THP-1 cell lysates)) EUB0000639a JAK1; type: subcellular; details: lysate, at 5 µM
[5] = molecular target: T2, Dual specificity tyrosine-phosphorylation-regulated kinase 2 (Homo sapiens) (UniProt Q92630); assay: Selectivity interaction (Kinase panel (DSF assay)) EUB0001559a DYRK2
T2 sequence (whole entry): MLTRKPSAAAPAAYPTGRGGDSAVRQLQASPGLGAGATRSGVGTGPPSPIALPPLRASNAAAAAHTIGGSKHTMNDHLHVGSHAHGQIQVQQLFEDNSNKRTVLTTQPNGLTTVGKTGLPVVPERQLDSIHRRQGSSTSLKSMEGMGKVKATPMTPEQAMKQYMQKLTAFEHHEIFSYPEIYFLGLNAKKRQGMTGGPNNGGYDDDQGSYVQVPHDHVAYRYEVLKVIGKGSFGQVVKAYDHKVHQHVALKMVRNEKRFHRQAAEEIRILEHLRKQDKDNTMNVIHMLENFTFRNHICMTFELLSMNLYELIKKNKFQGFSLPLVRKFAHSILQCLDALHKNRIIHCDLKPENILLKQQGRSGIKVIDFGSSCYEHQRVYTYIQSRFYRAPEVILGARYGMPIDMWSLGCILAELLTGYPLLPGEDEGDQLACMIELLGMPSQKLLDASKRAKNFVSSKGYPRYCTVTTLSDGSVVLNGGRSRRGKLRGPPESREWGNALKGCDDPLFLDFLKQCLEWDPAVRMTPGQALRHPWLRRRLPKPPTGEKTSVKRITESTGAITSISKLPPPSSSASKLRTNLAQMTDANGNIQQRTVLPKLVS

SRSF protein kinase 1 = SRSF protein kinase 1 (Homo sapiens, UniProt Q96SB4); assay: Selectivity interaction (KinomeScan (DiscoverX)) EUB0001049a SRPK1; details: at 1 µM
[6] = molecular target: T3, Ephrin type-B receptor 1 (Homo sapiens) (UniProt P54762); assay: Selectivity interaction (KinomeScan (DiscoverX)) EUB0000045b EPHB1
T3 sequence (whole entry): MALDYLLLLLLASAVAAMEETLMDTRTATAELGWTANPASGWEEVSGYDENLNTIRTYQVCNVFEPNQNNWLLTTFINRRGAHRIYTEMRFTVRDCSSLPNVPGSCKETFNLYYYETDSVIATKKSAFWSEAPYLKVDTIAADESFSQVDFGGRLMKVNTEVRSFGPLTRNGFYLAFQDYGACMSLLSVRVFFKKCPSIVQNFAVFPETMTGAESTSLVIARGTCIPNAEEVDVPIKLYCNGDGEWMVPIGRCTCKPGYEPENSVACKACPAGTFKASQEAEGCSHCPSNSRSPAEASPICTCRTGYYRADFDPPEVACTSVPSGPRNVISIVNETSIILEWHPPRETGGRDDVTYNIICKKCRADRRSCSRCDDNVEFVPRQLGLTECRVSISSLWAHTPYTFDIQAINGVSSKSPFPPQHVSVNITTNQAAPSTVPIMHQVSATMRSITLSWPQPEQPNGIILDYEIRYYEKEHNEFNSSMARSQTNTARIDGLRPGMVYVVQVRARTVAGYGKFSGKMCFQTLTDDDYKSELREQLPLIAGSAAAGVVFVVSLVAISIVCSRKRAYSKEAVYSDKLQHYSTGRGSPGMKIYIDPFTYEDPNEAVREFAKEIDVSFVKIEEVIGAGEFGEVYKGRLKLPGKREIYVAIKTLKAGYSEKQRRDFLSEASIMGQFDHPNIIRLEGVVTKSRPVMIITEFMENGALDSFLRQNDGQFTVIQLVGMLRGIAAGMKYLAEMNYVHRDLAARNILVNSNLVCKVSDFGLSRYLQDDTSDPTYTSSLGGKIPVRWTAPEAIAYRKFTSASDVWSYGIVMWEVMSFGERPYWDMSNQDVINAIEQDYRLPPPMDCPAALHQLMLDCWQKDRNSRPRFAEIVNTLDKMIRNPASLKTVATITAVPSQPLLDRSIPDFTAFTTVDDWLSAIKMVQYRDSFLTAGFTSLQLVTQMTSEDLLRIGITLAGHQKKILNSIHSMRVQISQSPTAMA

[7] = molecular target: Vascular endothelial growth factor receptor 3 (Homo sapiens, UniProt P35916); assay: Selectivity interaction (KinomeScan (DiscoverX)) EUB0001079a FLT4; details: at 1 µM
[8] = molecular target: Serine/threonine-protein kinase PLK3 (Homo sapiens, UniProt Q9H4B4); assay: Selectivity interaction (KinomeScan (DiscoverX)) EUB0000092b PLK3; details: at 10 µM
Focal adhesion kinase 1 = Focal adhesion kinase 1 (Homo sapiens, UniProt Q05397); assay: Selectivity interaction (ActivX KiNativ screen (ex vivo kinase selectivity in human PBMCs)) EUB0001619a PTK2; type: cell-based; details: PBMC, at 1 µM
Sequence of Focal adhesion kinase 1 (Q05397 2-1052 limits assumed): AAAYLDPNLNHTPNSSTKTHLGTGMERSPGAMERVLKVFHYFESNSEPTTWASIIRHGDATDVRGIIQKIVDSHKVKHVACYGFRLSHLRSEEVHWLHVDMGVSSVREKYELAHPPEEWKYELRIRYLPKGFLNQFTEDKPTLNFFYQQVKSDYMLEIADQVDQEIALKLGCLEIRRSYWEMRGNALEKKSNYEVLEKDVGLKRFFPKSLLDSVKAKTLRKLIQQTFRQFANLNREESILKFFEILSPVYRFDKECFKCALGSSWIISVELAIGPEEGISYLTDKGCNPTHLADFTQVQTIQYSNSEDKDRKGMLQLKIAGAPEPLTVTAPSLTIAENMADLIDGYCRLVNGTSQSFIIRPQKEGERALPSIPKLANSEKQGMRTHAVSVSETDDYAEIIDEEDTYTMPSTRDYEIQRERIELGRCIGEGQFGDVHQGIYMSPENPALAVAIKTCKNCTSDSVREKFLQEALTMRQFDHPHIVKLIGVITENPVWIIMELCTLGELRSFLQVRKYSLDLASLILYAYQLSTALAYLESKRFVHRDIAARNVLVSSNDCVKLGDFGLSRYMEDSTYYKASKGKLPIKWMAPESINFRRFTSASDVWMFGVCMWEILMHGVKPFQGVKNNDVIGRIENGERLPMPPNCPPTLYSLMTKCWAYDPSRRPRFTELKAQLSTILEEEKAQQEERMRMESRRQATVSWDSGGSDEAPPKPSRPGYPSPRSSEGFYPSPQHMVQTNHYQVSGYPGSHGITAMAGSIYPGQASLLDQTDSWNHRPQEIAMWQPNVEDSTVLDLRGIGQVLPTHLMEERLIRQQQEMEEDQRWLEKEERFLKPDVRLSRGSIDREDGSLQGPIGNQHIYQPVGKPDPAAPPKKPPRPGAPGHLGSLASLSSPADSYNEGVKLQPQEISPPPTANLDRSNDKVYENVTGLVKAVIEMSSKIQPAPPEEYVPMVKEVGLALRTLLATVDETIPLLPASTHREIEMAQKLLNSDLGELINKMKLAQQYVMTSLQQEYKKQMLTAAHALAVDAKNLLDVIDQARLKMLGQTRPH

Sequence of Tyrosine-protein kinase JAK1 (P23458 whole entry): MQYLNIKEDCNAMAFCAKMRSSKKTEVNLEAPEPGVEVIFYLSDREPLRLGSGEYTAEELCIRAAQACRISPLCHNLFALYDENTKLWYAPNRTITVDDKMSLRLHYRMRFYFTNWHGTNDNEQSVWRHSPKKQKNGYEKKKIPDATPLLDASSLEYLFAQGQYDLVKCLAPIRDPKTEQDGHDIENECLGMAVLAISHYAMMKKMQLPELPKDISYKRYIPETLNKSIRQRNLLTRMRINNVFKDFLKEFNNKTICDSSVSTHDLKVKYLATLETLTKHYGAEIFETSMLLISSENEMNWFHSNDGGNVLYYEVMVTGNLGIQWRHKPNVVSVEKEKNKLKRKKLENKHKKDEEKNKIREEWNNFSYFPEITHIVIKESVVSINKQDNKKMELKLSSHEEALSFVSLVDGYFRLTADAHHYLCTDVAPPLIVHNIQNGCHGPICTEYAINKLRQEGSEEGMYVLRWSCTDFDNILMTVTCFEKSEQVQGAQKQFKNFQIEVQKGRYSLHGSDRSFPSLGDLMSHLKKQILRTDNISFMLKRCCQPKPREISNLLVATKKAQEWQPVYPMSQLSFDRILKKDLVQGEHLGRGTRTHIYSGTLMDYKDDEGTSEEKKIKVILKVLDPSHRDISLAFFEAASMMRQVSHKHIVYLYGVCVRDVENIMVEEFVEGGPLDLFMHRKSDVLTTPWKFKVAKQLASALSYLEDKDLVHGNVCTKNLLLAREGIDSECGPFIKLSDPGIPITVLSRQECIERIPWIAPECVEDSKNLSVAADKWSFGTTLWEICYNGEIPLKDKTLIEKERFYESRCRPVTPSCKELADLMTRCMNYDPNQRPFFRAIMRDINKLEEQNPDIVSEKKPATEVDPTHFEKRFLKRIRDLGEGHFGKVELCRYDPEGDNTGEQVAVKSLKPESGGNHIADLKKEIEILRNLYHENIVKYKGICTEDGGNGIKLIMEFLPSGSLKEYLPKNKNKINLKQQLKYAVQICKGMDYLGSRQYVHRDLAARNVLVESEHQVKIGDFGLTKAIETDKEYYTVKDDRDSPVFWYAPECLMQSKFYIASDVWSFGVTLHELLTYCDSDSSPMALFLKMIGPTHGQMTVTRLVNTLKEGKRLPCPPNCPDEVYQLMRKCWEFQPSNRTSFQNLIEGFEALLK
Sequence of Vascular endothelial growth factor receptor 3 (P35916 whole entry): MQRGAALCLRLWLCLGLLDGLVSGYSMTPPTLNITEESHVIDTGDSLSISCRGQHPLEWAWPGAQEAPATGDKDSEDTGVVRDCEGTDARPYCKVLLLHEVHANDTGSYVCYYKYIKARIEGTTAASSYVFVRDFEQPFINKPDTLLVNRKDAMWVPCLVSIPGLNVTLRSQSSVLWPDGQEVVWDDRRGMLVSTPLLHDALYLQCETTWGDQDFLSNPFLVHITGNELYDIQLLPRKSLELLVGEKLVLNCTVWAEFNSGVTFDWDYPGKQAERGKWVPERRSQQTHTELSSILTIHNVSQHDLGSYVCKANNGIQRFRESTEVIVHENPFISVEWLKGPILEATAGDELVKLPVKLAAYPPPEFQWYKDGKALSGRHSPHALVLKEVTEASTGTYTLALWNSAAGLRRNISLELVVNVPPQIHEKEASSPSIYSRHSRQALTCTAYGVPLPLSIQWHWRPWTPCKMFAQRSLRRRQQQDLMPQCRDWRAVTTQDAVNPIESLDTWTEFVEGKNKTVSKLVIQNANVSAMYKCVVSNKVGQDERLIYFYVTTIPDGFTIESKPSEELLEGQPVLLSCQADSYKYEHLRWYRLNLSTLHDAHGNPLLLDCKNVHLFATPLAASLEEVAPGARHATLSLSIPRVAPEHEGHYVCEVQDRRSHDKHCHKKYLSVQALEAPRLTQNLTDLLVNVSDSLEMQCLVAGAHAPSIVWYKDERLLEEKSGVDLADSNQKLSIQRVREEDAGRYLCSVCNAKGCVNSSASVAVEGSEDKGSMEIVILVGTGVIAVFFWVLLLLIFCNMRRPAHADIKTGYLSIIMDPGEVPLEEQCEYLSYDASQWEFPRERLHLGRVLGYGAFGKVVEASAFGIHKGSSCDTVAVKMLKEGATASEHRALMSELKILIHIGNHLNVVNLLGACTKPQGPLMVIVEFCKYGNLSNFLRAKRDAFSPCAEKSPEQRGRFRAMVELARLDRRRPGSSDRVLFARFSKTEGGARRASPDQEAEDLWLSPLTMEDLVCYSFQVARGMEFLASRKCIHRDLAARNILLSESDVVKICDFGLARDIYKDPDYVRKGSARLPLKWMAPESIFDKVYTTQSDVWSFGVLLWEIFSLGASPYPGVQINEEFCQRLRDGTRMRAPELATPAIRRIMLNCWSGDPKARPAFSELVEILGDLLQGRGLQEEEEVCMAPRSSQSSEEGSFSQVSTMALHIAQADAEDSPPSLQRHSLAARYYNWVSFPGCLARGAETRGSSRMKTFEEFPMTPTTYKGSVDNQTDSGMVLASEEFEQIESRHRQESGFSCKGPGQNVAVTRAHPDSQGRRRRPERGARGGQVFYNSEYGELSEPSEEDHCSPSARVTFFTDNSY
Sequence of Serine/threonine-protein kinase Nek6 (Homo sapiens) (Q9HC98 whole entry): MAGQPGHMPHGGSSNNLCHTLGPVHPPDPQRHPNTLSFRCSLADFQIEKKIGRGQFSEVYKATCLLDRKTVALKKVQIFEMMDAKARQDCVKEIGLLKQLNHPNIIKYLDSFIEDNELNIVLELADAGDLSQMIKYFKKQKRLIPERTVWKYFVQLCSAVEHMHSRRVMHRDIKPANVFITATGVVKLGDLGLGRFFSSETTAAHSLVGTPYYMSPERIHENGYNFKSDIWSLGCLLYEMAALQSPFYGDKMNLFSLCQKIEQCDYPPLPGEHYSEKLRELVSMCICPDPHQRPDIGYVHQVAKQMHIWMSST
Sequence of SRSF protein kinase 1 (Q96SB4 whole entry): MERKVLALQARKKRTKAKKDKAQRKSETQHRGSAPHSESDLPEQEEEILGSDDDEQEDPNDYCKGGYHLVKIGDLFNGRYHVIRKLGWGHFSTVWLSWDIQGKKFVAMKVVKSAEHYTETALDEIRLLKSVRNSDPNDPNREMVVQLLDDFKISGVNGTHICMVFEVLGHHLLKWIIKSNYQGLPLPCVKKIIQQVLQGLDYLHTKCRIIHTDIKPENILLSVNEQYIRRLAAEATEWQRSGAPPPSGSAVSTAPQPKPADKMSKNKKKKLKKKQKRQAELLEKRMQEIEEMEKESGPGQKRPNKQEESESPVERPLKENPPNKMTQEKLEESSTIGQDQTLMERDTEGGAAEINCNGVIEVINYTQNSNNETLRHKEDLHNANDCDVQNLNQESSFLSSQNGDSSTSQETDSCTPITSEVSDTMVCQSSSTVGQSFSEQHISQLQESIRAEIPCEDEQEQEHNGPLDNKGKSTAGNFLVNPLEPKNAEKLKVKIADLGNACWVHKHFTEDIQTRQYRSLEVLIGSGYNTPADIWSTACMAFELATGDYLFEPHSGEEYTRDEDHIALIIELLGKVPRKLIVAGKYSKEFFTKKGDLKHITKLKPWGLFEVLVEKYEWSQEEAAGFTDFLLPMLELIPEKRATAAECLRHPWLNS

Structure (SMILES): O=C(NOC[C@H](O)CO)c1ccc(F)c(F)c1Nc1ccc(I)cc1F
% of control [1]: 72%

Structure (SMILES): CNC(=O)Nc1ccc(-c2nc(N3CC4CCC(C3)O4)c3cnn(C4CCC5(CC4)OCCO5)c3n2)cc1
% of control [2]: 100%

% of control [3]: 100%
Structure (SMILES): CCN(CC)CCCCNc1ncc2cc(-c3cc(OC)cc(OC)c3)c(NC(=O)NC(C)(C)C)nc2n1

% of inhibition [4]: -5.3%
Structure (SMILES): CC[C@@H]1[C@H](F)C(=O)N[C@@H]1COc1nccc2cc(C(N)=O)c(OC)cc12 [ZIMLOVISERTIB]

dTM [5]: -0.4 K
Structure (SMILES): CN(C(=O)c1cnn2cccnc12)c1cc2c(cc1N1CCOCC1)C(=O)N(C[C@@H](F)C(C)(C)O)C2

Structure (SMILES): COc1cc(Nc2nc(C)cc(-c3cnn4nc(OC)ccc34)n2)cc(C(F)(F)F)c1
% of control (SRSF protein kinase 1): 96%

Structure (SMILES): C=CC(=O)Nc1cc(-n2c(=O)ccc3cnc4ccc(-c5ccc(NS(C)(=O)=O)cc5)cc4c32)ccc1C
% of control ([6]; at 1 µM): 100%
% of control ([6]; at 10 µM): 100%

Structure (SMILES): Nc1cnc(N2CCc3cc(S(=O)(=O)Nc4c(F)cc(Cl)cc4F)cc(N4CCCC4=O)c32)nc1 [TP-020n]
% of control [7]: 86%

Structure (SMILES): CCC(=O)N1CCN(c2ccc(-n3c(=O)ccc4cnc5ccc(-c6cnc7ccccc7c6)cc5c43)cc2C(F)(F)F)CC1
% of control [8]: 87%

Structure (SMILES): N#Cc1cccc(-c2c[nH]c3ncnc(N4CCOCC4)c23)c1
% of inhibition (Focal adhesion kinase 1): 11%
